# Data as given in patent US20260184807A1, “Methods for Treating Rheumatoid Arthritis Using a Syndecan-1 Inhibitor or Syntenin-1 Inhibitor” (The United States Government as represented by the …, priority 2022, published 2026).
# Tested on: HUVECs
# Experiment: Syntenin-1 stimulation and inhibition in HUVECs (qRT-PCR)
# Format: cell-based, human
# Details: Syntenin-1 1000 ng/ml, mTORi 1 μM, cMYCi 50 μM
# Protocol: FIGS. 11A-J show Syntenin-1 reprogrammed endothelial cells display a robust inflammatory phenotype. Relative expression of Syntenin-1 (FIG. 11A) or SDC-1 (FIG. 11B) was determined by RNAseq (Lewis M J, et al. Cell reports. 2019; 28:2455-2470 e2455) in synovial tissue biopsies from RA non-responsive (Non-R)(ΔDAS28≤0.6, n=16-23) and moderate (ΔDAS28 1.2 & >0.6, n=21) and good responsive (ΔDAS28>1.2, n=35-50) patients. […] HUVECs were treated with PBS (ctrl) or Syntenin-1 (1000 ng/ml) for 6 h and transcription of IRFs (FIG. 11E), inflammatory mediators (FIG. 11F), TLRs (FIG. 11I), and pro-repair factors (FIG. 11J) were assessed by qRT-PCR (n=7-12). HUVECs were treated with PBS or Syntenin-1 (1000 ng/ml) in the presence or absence of SDC-1 Ab (SDCab; 1:100), IL-5R Ab (IL5Ra; 2 μg/ml), or PDZli (PDZ1; 10 μM) for 6 h before quantifying transcription levels of TNFα (FIG. 11G) and IL-1β (FIG. 11H), (5-7). Data are presented as mean±SEM; significant differences were determined by the Mann-Whitney test, 2way ANOVA, or one-way ANOVA. *p<0.05, **p<0.01, ***p<0.001, ****p<0.0001. […]
# Syntenin-1 stimulation and inhibition. […] Cells were subsequently harvested in TRIzol reagent (Life Technologies) or RIPA buffer (Cell Signaling Technology) for mRNA quantification and western blot analysis; conditioned media was collected for ELISA.
# Quantitative Real-Time PCR. […]
smiles,measurement,setting,value
"CO[C@H]1C[C@@H]2CC[C@@H](C)[C@@](O)(O2)C(=O)C(=O)N2CCCC[C@H]2C(=O)O[C@H]([C@H](C)C[C@@H]2CC[C@@H](OCCO)[C@H](OC)C2)CC(=O)[C@H](C)/C=C(\C)[C@@H](O)[C@@H](OC)C(=O)[C@H](C)C[C@H](C)/C=C/C=C/C=C/1C [mTORi, Everolimus]",TNF expression in Syntenin-1-reconfigured endothelial cells,"HIF1αi 2 μM, FIG. 13H",diminished
same,Syntenin-1-elevated HIF1α expression levels,FIG. 13E,dysregulated
